The text below walks through data of patent US12281122B1, “PI3K inhibitors” (Cogent Biosciences, Inc., priority 2023, dated 2025).

For test [1], the system named is SKBR3 (PI3Kα-Wild Type) cell line. As to the kind of experiment: HTRF phospho-AKT(S473) cell assay in SKBR3 cells. The format is cell-based, human. The method in brief:
(§1)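 pAKT(S473) in lysates read by HTRF after a 2 h, 37 °C compound exposure (12-point 1:3 series, max 0.5% DMSO). SKBR3 (wild type, top 10 μM) received 70 ng/ml PDGF-BB during the final 15 min; T47D (H1047R, top 5 μM) was unstimulated. IC50 values derived from the dose-response.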
(In general: TR-FRET usually uses a lanthanide donor and a delayed reading to cut background.)

Test [2] deals with T47D (PI3Kα-H1047R) cell line. As to the kind of experiment: HTRF phospho-AKT(S473) cell assay in T47D cells. The class given is cell-based, human. In short, it runs like this:
as §1

[3] abbreviates: Homo sapiens, SK-BR-3; SKBR3 (PI3Kα-Wild Type) cells, HTRF phospho-AKT(S473), 2 hours compound incubation, PDGF-BB stimulated.
[4] abbreviates: Homo sapiens; T47D (PI3Kα-H1047R) cells, HTRF phospho-AKT(S473), 2 hours compound incubation.
The mark [5] stands for this setting: Homo sapiens, SK-BR-3; HTRF phospho-AKT(S473), SKBR3 (PI3Kα-Wild Type) cells, 2 hours compound incubation, PDGF-BB stimulated.
Where [6] appears, read: Homo sapiens; HTRF phospho-AKT(S473), T47D (PI3Kα-H1047R) cells, 2 hours compound incubation.

By IC50 is commonly meant the point on the concentration scale where inhibition reaches its midpoint. Low readings indicate inhibition by little substance, high ones a need for much substance. For the compound `Cc1cc([C@@H](C)Nc2ccc(Cl)nc2C(=O)NS(C)(=O)=O)c2nc(N3Cc4cn([C@H](C)C(F)(F)F)nc4C3)n(C)c(=O)c2c1` (relative stereo) [Compound 224, 6-chloro-3-(((R)-1-(3,6-dimethyl-4-oxo-2-(2-((R*)-1,1,1-trifluoropropan-2-yl)-2,6-dihydropyrrolo[3,4-c]pyrazol-5(4H)-yl)-3,4-dihydroquinazolin-8-yl)ethyl)amino)-N-(methylsulfonyl) picolinamide], the IC50 in test [1] (setting [3]) is 1 to 5 µM; in test [2] (setting [4]), less than 0.25 µM.

Turning to `Cc1cc([C@@H](C)Nc2ccc(Cl)nc2C(=O)NS(C)(=O)=O)c2nc(N3CCC(n4cc(C)cn4)CC3)n(C)c(=O)c2c1` [Compound 197, (R)-6-chloro-3-((1-(3,6-dimethyl-2-(4-(4-methyl-1H-pyrazol-1-yl)piperidin-1-yl)-4-oxo-3,4-dihydroquinazolin-8-yl)ethyl)amino)-N-(methylsulfonyl) picolinamide], the IC50 was 1 to 5 µM in test [1] (setting [3]) and less than 0.25 µM in test [2] (setting [4]).

Take `Cc1cc([C@@H](C)Nc2ccc(Cl)nc2C(=O)NS(C)(=O)=O)c2nc(N3C[C@@H]4[C@H](C3)[C@H]4c3cccnc3C)n(C)c(=O)c2c1` [Compound 385, 6-chloro-3-(((R)-1-(3,6-dimethyl-2-((1R,5S,6S)-6-(2-methylpyridin-3-yl)-3-azabicyclo[3.1.0]hexan-3-yl)-4-oxo-3,4-dihydroquinazolin-8-yl)ethyl)amino)-N-(methylsulfonyl) picolinamide]: the IC50 in test [1] (setting [3]) is 1 to 5 µM; in test [2] (setting [4]), less than 0.25 µM.

`Cc1cc([C@@H](C)Nc2ccc(Cl)nc2C(=O)NS(C)(=O)=O)c2nc(N3C[C@H]4C[C@@H]3CN4c3ccccn3)n(C)c(=O)c2c1` [Compound 603, 6-chloro-3-(((R)-1-(3,6-dimethyl-4-oxo-2-((1R,4R)-5-(pyridin-2-yl)-2,5-diazabicyclo [2.2.1]heptan-2-yl)-3,4-dihydroquinazolin-8-yl)ethyl)amino)-N-(methylsulfonyl) picolinamide]: the values for the IC50 in test [1] (setting [5]) and in test [2] (setting [6]) were no less than 5 µM and 0.5 to 1 µM, respectively.

On to `Cc1cc([C@@H](C)Nc2ccc(Cl)nc2C(=O)NS(C)(=O)=O)c2nc(N3C[C@H]4C[C@@H]3C[C@H]4c3nn(C)cc3F)n(C)c(=O)c2c1` [Compound 766, 6-chloro-3-(((R)-1-(2-((1R,4S,5R)-5-(4-fluoro-1-methyl-1H-pyrazol-3-yl)-2-azabicyclo[2.2.1]heptan-2-yl)-3,6-dimethyl-4-oxo-3,4-dihydroquinazolin-8-yl)ethyl)amino)-N-(methylsulfonyl) picolinamide], for which the IC50 is no less than 5 µM in test [1] (setting [5]) and 0.25 to 0.5 µM in test [2] (setting [6]).

As for `Cc1cc([C@@H](C)Nc2ccc(Cl)nc2C(=O)NS(C)(=O)=O)c2nc(N3CCC(C)(c4c(F)cnn4C)CC3)n(C)c(=O)c2c1` [Compound 407, (R)-6-chloro-3-((1-(2-(4-(4-fluoro-1-methyl-1H-pyrazol-5-yl)-4-methylpiperidin-1-yl)-3,6-dimethyl-4-oxo-3,4-dihydroquinazolin-8-yl)ethyl)amino)-N-(methylsulfonyl) picolinamide], the results for the IC50 in test [1] (setting [3]) and in test [2] (setting [4]) were no less than 5 µM and 0.25 to 0.5 µM, respectively.

Consider `Cc1cc([C@@H](C)Nc2ccc(Cl)nc2C(=O)NS(C)(=O)=O)c2nc(N3CCC[C@H](c4cnn(CC(F)(F)F)c4)C3)n(C)c(=O)c2c1` (relative stereo) [Compound 231, 6-chloro-3-(((R)-1-(3,6-dimethyl-4-oxo-2-((R*)-3-(1-(2,2,2-trifluoroethyl)-1H-pyrazol-4-yl)piperidin-1-yl)-3,4-dihydroquinazolin-8-yl)ethyl)amino)-N-(methylsulfonyl) picolinamide], for which the results for the IC50 in test [1] (setting [3]) and in test [2] (setting [4]) were 1 to 5 µM and less than 0.25 µM, respectively.

With `Cc1cc([C@@H](C)Nc2ccc(Cl)nc2C(=O)NS(C)(=O)=O)c2nc(N3CCc4nn(C(F)F)cc4C3)n(C)c(=O)c2c1` [Compound 627, (R)-6-chloro-3-((1-(2-(2-(difluoromethyl)-2,4,6,7-tetrahydro-5H-pyrazolo[4,3-c]pyridin-5-yl)-3,6-dimethyl-4-oxo-3,4-dihydroquinazolin-8-yl)ethyl)amino)-N-(methylsulfonyl) picolinamide], the IC50 was 1 to 5 µM in test [1] (setting [5]) and less than 0.25 µM in test [2] (setting [6]).

`Cc1cc([C@@H](C)Nc2ccc(Cl)nc2C(=O)NS(C)(=O)=O)c2nc(N3CCC(c4nnc(C)n4C(F)F)CC3)n(C)c(=O)c2c1` [Compound 725, (R)-6-chloro-3-((1-(2-(4-(4-(difluoromethyl)-5-methyl-4H-1,2,4-triazol-3-yl)piperidin-1-yl)-3,6-dimethyl-4-oxo-3,4-dihydroquinazolin-8-yl)ethyl)amino)-N-(methylsulfonyl) picolinamide]: the IC50 in test [1] (setting [5]) lay within 1 to 5 µM; in test [2] (setting [6]), 0.25 to 0.5 µM.

Take `Cc1cc([C@@H](C)Nc2ccc(Cl)nc2C(=O)NS(C)(=O)=O)c2nc(N3CCC(C)(c4ccnn4C)CC3)n(C)c(=O)c2c1` [Compound 302, (R)-6-chloro-3-((1-(3,6-dimethyl-2-(4-methyl-4-(1-methyl-1H-pyrazol-5-yl)piperidin-1-yl)-4-oxo-3,4-dihydroquinazolin-8-yl)ethyl)amino)-N-(methylsulfonyl) picolinamide]: the IC50 in test [1] (setting [3]) was 1 to 5 µM; in test [2] (setting [4]), less than 0.25 µM.

With `Cc1cc([C@@H](C)Nc2ccc(Cl)nc2C(=O)NS(C)(=O)=O)c2nc(N3CCN(c4cnccn4)CC3)n(C)c(=O)c2c1` [Compound 714, (R)-6-chloro-3-((1-(3,6-dimethyl-4-oxo-2-(4-(pyrazin-2-yl)piperazin-1-yl)-3,4-dihydroquinazolin-8-yl)ethyl)amino)-N-(methylsulfonyl) picolinamide], the IC50 in test [1] (setting [5]) was 1 to 5 µM; in test [2] (setting [6]), less than 0.25 µM.

`Cc1cc([C@@H](C)Nc2ccc(Cl)nc2C(=O)NS(C)(=O)=O)c2nc(N3[C@@H]4CC[C@H]3C[C@@H](c3ccn(C)n3)C4)n(C)c(=O)c2c1` [Compound 340, 6-chloro-3-(((R)-1-(3,6-dimethyl-2-((1R,3R,5S)-3-(1-methyl-1H-pyrazol-3-yl)-8-azabicyclo[3.2.1]octan-8-yl)-4-oxo-3,4-dihydroquinazolin-8-yl)ethyl)amino)-N-(methylsulfonyl) picolinamide]: the IC50 is no less than 5 µM in test [1] (setting [3]) and 0.25 to 0.5 µM in test [2] (setting [4]).

`Cc1cc([C@@H](C)Nc2ccc(Cl)nc2C(=O)NS(C)(=O)=O)c2nc(N3C[C@@H]4[C@H](C3)[C@H]4c3cn(C)nn3)n(C)c(=O)c2c1` [Compound 387, 6-chloro-3-(((R)-1-(3,6-dimethyl-2-((1R,5S,6R)-6-(1-methyl-1H-1,2,3-triazol-4-yl)-3-azabicyclo[3.1.0]hexan-3-yl)-4-oxo-3,4-dihydroquinazolin-8-yl)ethyl)amino)-N-(methylsulfonyl) picolinamide]: the figures for the IC50 in test [1] (setting [3]) and in test [2] (setting [4]) were 1 to 5 µM and less than 0.25 µM, respectively.

Turning to `Cc1cnc(N2C[C@H]3C[C@@H]2CN3c2nc3c([C@@H](C)Nc4ccc(Cl)nc4C(=O)NS(C)(=O)=O)cc(C)cc3c(=O)n2C)nc1` [Compound 565, 6-chloro-3-(((R)-1-(3,6-dimethyl-2-((1R,4R)-5-(5-methylpyrimidin-2-yl)-2,5-diazabicyclo[2.2.1]heptan-2-yl)-4-oxo-3,4-dihydroquinazolin-8-yl)ethyl)amino)-N-(methylsulfonyl) picolinamide], the results for the IC50 in test [1] (setting [5]) and in test [2] (setting [6]) were no less than 5 µM and 0.25 to 0.5 µM, respectively.

As for `Cc1cc([C@@H](C)Nc2ccc(Cl)nc2C(=O)NS(C)(=O)=O)c2nc(N3CC[C@@H](Oc4cnn(CC(F)(F)F)c4)C3)n(C)c(=O)c2c1` [Compound 329, 6-chloro-3-(((R)-1-(3,6-dimethyl-4-oxo-2-((R)-3-((1-(2,2,2-trifluoroethyl)-1H-pyrazol-4-yl)oxy)pyrrolidin-1-yl)-3,4-dihydroquinazolin-8-yl)ethyl)amino)-N-(methylsulfonyl) picolinamide], the concentration for half-maximal inhibition (IC50) in test [1] (setting [3]) is 1 to 5 µM; in test [2] (setting [4]), less than 0.25 µM.

As for `Cc1cc([C@@H](C)Nc2ccc(Cl)nc2C(=O)NS(C)(=O)=O)c2nc(-c3ccc(O[C@H]4CCN(C)CC4(F)F)nc3)n(C)c(=O)c2c1` [Compound 281, 6-chloro-3-(((R)-1-(2-(6-(((S)-3,3-difluoro-1-methylpiperidin-4-yl)oxy)pyridin-3-yl)-3,6-dimethyl-4-oxo-3,4-dihydroquinazolin-8-yl)ethyl)amino)-N-(methylsulfonyl) picolinamide], the IC50 is 1 to 5 µM in test [1] (setting [3]) and less than 0.25 µM in test [2] (setting [4]).

In the case of `Cc1cc([C@@H](C)Nc2ccc(Cl)nc2C(=O)NS(C)(=O)=O)c2nc(N3CCC(c4ncc(C)c(C)n4)CC3)n(C)c(=O)c2c1` [Compound 544, (R)-6-chloro-3-((1-(2-(4-(4,5-dimethylpyrimidin-2-yl)piperidin-1-yl)-3,6-dimethyl-4-oxo-3,4-dihydroquinazolin-8-yl)ethyl)amino)-N-(methylsulfonyl) picolinamide], the IC50 in test [1] (setting [5]) was 1 to 5 µM; in test [2] (setting [6]), less than 0.25 µM.

As to `Cc1cc([C@@H](C)Nc2ccc(Cl)nc2C(=O)NS(C)(=O)=O)c2nc(N3CCN(c4ncccn4)CC3)n(C)c(=O)c2c1` [Compound 169, (R)-6-chloro-3-((1-(3,6-dimethyl-4-oxo-2-(4-(pyrimidin-2-yl)piperazin-1-yl)-3,4-dihydroquinazolin-8-yl)ethyl)amino)-N-(methylsulfonyl) picolinamide], the half-inhibitory concentration (IC50) is 1 to 5 µM in test [1] (setting [3]) and less than 0.25 µM in test [2] (setting [4]).
